The record followed here is patent US9440978B2, “Imidazolo-, oxazolo-, and thiazolopyrimidine modulators of TRPV1” (Janssen Pharmaceutica NV, priority 2007, dated 2016).

One assay has as its target T1, human TRPV1 (Homo sapiens, UniProt Q8NER1).
T1 construct: expressed in transfected cells; host or cells: HEK293
Kind of assay: Block of capsaicin-induced Ca2+ influx, human assay (hTRPV1/HEK293, FLIPR). Format: cell-based. The note with it: HEK293 cells transfected with human TRPV1; 150 nM capsaicin challenge; mean; > value = solubility limit in assay medium. The method, then:
(§1) HEK293 cells were transfected with human TRPV1 cloned in pcDNA3.1zeo(+) using the Effectene non-liposomal lipid based transfection kit (Qiagen) (hTRPV1/HEK293). hTRPV1/HEK293 cells were routinely grown as monolayers under selection in zeocin (200 μg/mL; Invitrogen) in Dulbecco's Modified Eagle Medium (DMEM, Gibco BRL) supplemented with 10% fetal bovine serum, and penicillin/streptomycin (50 units/mL) in 5% CO2 at 37° C. Cells were passaged frequently, every 3-5 days, to avoid overgrowth, depletion of essential medium components, or acidic medium exposure. Cells were passaged using a brief wash in 0.05% trypsin with 1 mM EDTA, followed by dissociation in divalent-free phosphate-buffered saline (Hyclone #SH30028.02). […] The assay buffer was composed of 130 mM NaCl, 2 mM KCl, 2 mM MgCl2, 10 mM HEPES, 5 mM glucose, and either 2 mM or 20 μM CaCl2. On the day of the experiment, the culture medium was replaced with 2 mM calcium assay buffer using an automated plate washer (ELx405; Biotek, VT). […] After loading the cells, the dye solution was replaced with 50 μL/well of 20 μM calcium assay buffer using the ELx405 plate washer. Test compounds (50 μL/well) were added to the plate and incubated for 30 min. Intracellular Ca^2+ levels were subsequently assayed using a Fluorometric Imaging Plate Reader (FLIPR™ instrument, Molecular Devices, CA) to simultaneously monitor Fluo-3 fluorescence in all wells (λexcitation=488 nm, λemission=540 nm) during challenge with agonist (capsaicin). The IC50 values were determined. […] The contents of the wells were mixed 3 times (40 μL mix volume) immediately after the additions were made. Concentration-dependence of block was determined by exposing each well of cells in duplicate rows of a 96-well plate to a serial dilution of test compound. The concentration series usually started at 10 μM with a three-fold serial decrement in concentration. The magnitude of the capsaicin response was determined by measuring the change in fluo3 fluorescence before and 100 seconds after the addition of the agonist. Data were analyzed using a non-linear regression program (Origin; OriginLab, MA).
(§2) IC50 values shown are the average (mean) of the results obtained. […] Compounds were tested as in the free base, trifluoroacetic acid salt, or hydrochloride salt form.

In a further assay the target is T2, rat TRPV1 (Rattus norvegicus, UniProt O35433).
T2 construct: expressed in transfected cells; host or cells: HEK293
As to the kind of experiment: Block of capsaicin-induced Ca2+ influx, rat assay (rTRPV1/HEK293, FLIPR). The class given is cell-based. The note with it: HEK293 cells transfected with rat TRPV1; capsaicin challenge; mean; > value = solubility limit in assay medium; read-out: Rat IC50. The method, then:
as §1
This assay was performed similarly to the human assay described above, but using HEK293 cells transfected with rat TRPV1 (rTRPV1/HEK293).
as §2

T2 sequence (O35433 whole entry): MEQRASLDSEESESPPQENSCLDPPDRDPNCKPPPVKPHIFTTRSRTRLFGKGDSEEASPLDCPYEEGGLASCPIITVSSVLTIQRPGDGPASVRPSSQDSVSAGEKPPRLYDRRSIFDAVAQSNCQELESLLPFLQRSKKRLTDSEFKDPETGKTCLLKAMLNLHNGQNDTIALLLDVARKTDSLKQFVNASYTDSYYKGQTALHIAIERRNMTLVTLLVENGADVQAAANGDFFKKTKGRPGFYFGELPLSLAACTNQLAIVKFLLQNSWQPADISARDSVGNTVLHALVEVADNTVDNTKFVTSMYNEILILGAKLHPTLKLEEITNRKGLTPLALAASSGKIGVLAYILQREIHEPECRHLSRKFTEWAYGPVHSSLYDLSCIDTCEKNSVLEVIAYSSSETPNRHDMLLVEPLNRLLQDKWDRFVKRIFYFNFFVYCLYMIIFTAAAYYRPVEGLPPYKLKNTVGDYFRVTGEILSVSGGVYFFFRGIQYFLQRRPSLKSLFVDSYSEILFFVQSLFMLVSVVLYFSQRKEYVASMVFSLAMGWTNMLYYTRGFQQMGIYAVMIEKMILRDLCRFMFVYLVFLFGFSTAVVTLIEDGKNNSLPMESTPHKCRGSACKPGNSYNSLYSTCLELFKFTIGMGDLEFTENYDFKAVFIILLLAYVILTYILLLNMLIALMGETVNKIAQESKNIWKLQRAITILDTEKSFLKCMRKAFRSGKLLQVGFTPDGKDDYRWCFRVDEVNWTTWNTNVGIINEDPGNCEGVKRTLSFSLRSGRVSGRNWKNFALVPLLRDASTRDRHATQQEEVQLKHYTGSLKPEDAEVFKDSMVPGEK
T1 sequence (Q8NER1 whole entry): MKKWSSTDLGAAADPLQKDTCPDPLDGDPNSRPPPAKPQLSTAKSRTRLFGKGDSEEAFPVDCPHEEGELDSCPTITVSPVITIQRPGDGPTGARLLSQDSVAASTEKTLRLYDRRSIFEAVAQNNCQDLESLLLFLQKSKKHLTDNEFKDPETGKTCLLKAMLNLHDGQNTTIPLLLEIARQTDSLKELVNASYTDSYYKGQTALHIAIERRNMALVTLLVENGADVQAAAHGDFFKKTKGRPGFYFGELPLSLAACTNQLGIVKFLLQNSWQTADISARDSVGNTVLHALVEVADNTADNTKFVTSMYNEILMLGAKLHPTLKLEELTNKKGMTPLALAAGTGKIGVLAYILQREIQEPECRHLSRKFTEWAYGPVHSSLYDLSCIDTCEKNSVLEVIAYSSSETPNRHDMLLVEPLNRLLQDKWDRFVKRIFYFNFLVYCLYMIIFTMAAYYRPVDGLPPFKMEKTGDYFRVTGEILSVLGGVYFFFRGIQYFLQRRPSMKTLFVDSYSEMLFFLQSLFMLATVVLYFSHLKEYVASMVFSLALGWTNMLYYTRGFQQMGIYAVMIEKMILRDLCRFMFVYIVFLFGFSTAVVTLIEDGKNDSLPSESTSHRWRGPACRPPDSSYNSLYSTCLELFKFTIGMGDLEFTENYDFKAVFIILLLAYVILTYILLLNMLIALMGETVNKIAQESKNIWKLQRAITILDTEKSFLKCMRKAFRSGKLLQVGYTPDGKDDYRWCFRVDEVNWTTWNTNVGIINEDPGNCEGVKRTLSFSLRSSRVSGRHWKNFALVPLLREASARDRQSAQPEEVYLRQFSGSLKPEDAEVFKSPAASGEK

In general, IC50 refers to the concentration needed to halve the response being measured. In the case of `FC(F)(F)c1ccc(Nc2ncnc3sc(Cc4c(Cl)cccc4Cl)nc23)cn1` [Example 8, [2-(2,6-Dichloro-benzyl)-thiazolo[5,4-d]pyrimidin-7-yl]-(6-trifluoromethyl-pyridin-3-yl)-amine], the IC50 at human TRPV1 turned out to be 30 nM; on rat TRPV1, 55 nM.
For `FC(F)(F)c1ccc(Nc2ncnc3sc(Cc4c(Cl)cccc4Cl)nc23)cc1Cl` [Example 9, (3-Chloro-4-trifluoromethyl-phenyl)-[2-(2,6-dichloro-benzyl)-thiazolo[5,4-d]pyrimidin-7-yl]-amine], in that order: 40 nM and 74 nM.
In the same order, the values of `CS(=O)(=O)c1ccc(Nc2ncnc3sc(Cc4c(Cl)cccc4Cl)nc23)cc1` [Example 13, [2-(2,6-Dichloro-benzyl)-thiazolo[5,4-d]pyrimidin-7-yl]-(4-methanesulfonyl-phenyl)-amine] are 190 nM and 57 nM.
For `O=S(=O)(c1ccc(Nc2ncnc3sc(Cc4c(Cl)cccc4Cl)nc23)cc1)C(F)(F)F` [Example 14], in that order: 34 nM and 68 nM.
With `O=S(=O)(c1ccc(Nc2ncnc3sc(Cc4c(Cl)cccc4Cl)nc23)cc1)N1CCOCC1` [Example 15, [2-(2,6-Dichloro-benzyl)-thiazolo[5,4-d]pyrimidin-7-yl]-[4-(morpholine-4-sulfonyl)-phenyl]-amine], the IC50 against human TRPV1 was 33 nM; on rat TRPV1 it was 54 nM.
For `CN1CCN(S(=O)(=O)c2ccc(Nc3ncnc4sc(Cc5c(Cl)cccc5Cl)nc34)cc2)CC1` [Example 16, [2-(2,6-Dichloro-benzyl)-thiazolo[5,4-d]pyrimidin-7-yl]-[4-(4-methyl-piperazine-1-sulfonyl)-phenyl]-amine], in that order: 416 nM and 1090 nM.
In the same order, the values of `Cc1ccccc1Cc1nc2c(Nc3ccc(C(F)(F)F)cc3)ncnc2s1` [Example 17, 2-(2-Methylbenzyl)-N-[4-(trifluoromethyl)phenyl][1,3]thiazolo[5,4-d]pyrimidin-7-amine] are 147 nM and 146 nM.
In the same order, the values of `Cc1ccccc1Cc1nc2c(Nc3ccc(C(F)(F)F)nc3)ncnc2s1` [Example 18, 2-(2-Methylbenzyl)-N-[6-(trifluoromethyl)pyridin-3-yl][1,3]thiazolo[5,4-d]pyrimidin-7-amine] are 85 nM and 154 nM.
For the compound `Cc1ccccc1Cc1nc2c(Nc3ccc(S(C)(=O)=O)cc3)ncnc2s1` [Example 19, 2-(2-Methylbenzyl)-N-[4-(methylsulfonyl)phenyl][1,3]thiazolo[5,4-d]pyrimidin-7-amine], the IC50 on human TRPV1 stood at 471 nM; on rat TRPV1, 247 nM.
On to `FC(F)(F)c1ccc(Nc2ncnc3sc(Cc4ccccc4Cl)nc23)cc1` [Example 20, 2-(2-Chlorobenzyl)-N-[4-(trifluoromethyl)phenyl][1,3]thiazolo[5,4-d]pyrimidin-7-amine], for which the IC50 on human TRPV1 was 40 nM; on rat TRPV1 it was 32 nM.
For `FC(F)(F)c1ccc(Nc2ncnc3sc(Cc4ccccc4Cl)nc23)cn1` [Example 21, 2-(2-Chlorobenzyl)-N-[6-(trifluoromethyl)pyridin-3-yl][1,3]thiazolo[5,4-d]pyrimidin-7-amine], in that order: 79 nM and 54 nM.
In the same order, the values of `CS(=O)(=O)c1ccc(Nc2ncnc3sc(Cc4ccccc4Cl)nc23)cc1` [Example 22, 2-(2-Chlorobenzyl)-N-[4-(methylsulfonyl)phenyl][1,3]thiazolo[5,4-d]pyrimidin-7-amine] are 280 nM and 33 nM.
Turning to `FC(F)(F)c1ccccc1Nc1ncnc2sc(Cc3c(Cl)cccc3Cl)nc12` [Example 23, 2-(2,6-Dichlorobenzyl)-N-[2-(trifluoromethyl)phenyl][1,3]thiazolo[5,4-d]pyrimidin-7-amine], the IC50 is > 6670 nM at human TRPV1 and 1790 nM on rat TRPV1.
In the same order, the values of `FC(F)(F)c1cccc(Nc2ncnc3sc(Cc4c(Cl)cccc4Cl)nc23)c1` [Example 24, 2-(2,6-Dichlorobenzyl)-N-[3-(trifluoromethyl)phenyl][1,3]thiazolo[5,4-d]pyrimidin-7-amine] are 840 nM and 196 nM.
In the same order, the values of `CC(C)(C)c1ccc(Nc2ncnc3sc(Cc4c(Cl)cccc4Cl)nc23)cc1` [Example 25, N-(4-tert-Butylphenyl)-2-(2,6-dichlorobenzyl)[1,3]thiazolo[5,4-d]pyrimidin-7-amine] are 54 nM and 11 nM.
As to `FC(F)(F)c1ccc(Nc2ncnc3sc(Cc4ccccc4)nc23)cc1` [Example 32, 2-Benzyl-N-[4-(trifluoromethyl)phenyl][1,3]thiazolo[5,4-d]pyrimidin-7-amine], the results for the IC50 on human TRPV1 and at rat TRPV1 were 2920 nM and 55 nM, respectively.
In the case of `FC(F)(F)c1ccc(Nc2ncnc3sc(Cc4ccccc4)nc23)cn1` [Example 33, 2-Benzyl-N-[6-(trifluoromethyl)pyridin-3-yl][1,3]thiazolo[5,4-d]pyrimidin-7-amine], the results for the IC50 against human TRPV1 and at rat TRPV1 were 813 nM and 111 nM, respectively.
For the compound `CS(=O)(=O)c1ccc(Nc2ncnc3sc(Cc4ccccc4)nc23)cc1` [Example 34, 2-Benzyl-N-[4-(methylsulfonyl)phenyl][1,3]thiazolo[5,4-d]pyrimidin-7-amine], the values for the IC50 against human TRPV1 and at rat TRPV1 were 3310 nM and 1460 nM, respectively.
In the same order, the values of `FC(F)(F)c1ccc(Nc2ncnc3sc(Cc4ccc(Cl)cc4)nc23)cc1` [Example 35, 2-(4-Chlorobenzyl)-N-[4-(trifluoromethyl)phenyl][1,3]thiazolo[5,4-d]pyrimidin-7-amine] are 988 nM and 42 nM.
In the same order, the values of `FC(F)(F)c1ccc(Nc2ncnc3sc(Cc4ccc(Cl)cc4)nc23)cn1` [Example 36, 2-(4-Chlorobenzyl)-N-[6-(trifluoromethyl)pyridin-3-yl][1,3]thiazolo[5,4-d]pyrimidin-7-amine] are 2300 nM and 80 nM.
`COc1ccc(Nc2ncnc3sc(Cc4c(Cl)cccc4Cl)nc23)cc1` [Example 37, 2-(2,6-Dichlorobenzyl)-N-(4-methoxyphenyl)[1,3]thiazolo[5,4-d]pyrimidin-7-amine]: the IC50 on human TRPV1 worked out at 328 nM; on rat TRPV1 it was 241 nM.
`Fc1ccc(Nc2ncnc3sc(Cc4c(Cl)cccc4Cl)nc23)cc1` [Example 39, 2-(2,6-Dichlorobenzyl)-N-(4-fluorophenyl)[1,3]thiazolo[5,4-d]pyrimidin-7-amine]: the concentration for half-maximal inhibition (IC50) against human TRPV1 is 225 nM; at rat TRPV1, 189 nM.
In the same order, the values of `Clc1ccc(Nc2ncnc3sc(Cc4c(Cl)cccc4Cl)nc23)cc1` [Example 40, N-(4-Chlorophenyl)-2-(2,6-dichlorobenzyl)[1,3]thiazolo[5,4-d]pyrimidin-7-amine] are 49 nM and 51 nM.
As to `Clc1cccc(Cl)c1Cc1nc2c(Nc3ccc(Br)cc3)ncnc2s1` [Example 41, N-(4-Bromophenyl)-2-(2,6-dichlorobenzyl)[1,3]thiazolo[5,4-d]pyrimidin-7-amine], the IC50 amounted to 32 nM on human TRPV1 and 29 nM at rat TRPV1.
In the same order, the values of `CC(C)(C#N)c1ccc(Nc2ncnc3sc(Cc4c(Cl)cccc4Cl)nc23)cc1` [Example 42, 2-(4-{[2-(2,6-Dichlorobenzyl)[1,3]thiazolo[5,4-d]pyrimidin-7-yl]amino}phenyl)-2-methylpropanenitrile] are 99 nM and 56 nM.
As for `Clc1cccc(Cl)c1Cc1nc2c(Nc3ccccc3)ncnc2s1` [Example 43, 2-(2,6-Dichlorobenzyl)-N-phenyl[1,3]thiazolo[5,4-d]pyrimidin-7-amine], the values for the IC50 on human TRPV1 and at rat TRPV1 were 269 nM and 167 nM, respectively.
In the same order, the values of `FC(F)(F)Oc1ccc(Nc2ncnc3sc(Cc4c(Cl)cccc4Cl)nc23)cc1` [Example 44, 2-(2,6-Dichlorobenzyl)-N-[4-(trifluoromethoxy)phenyl][1,3]thiazolo[5,4-d]pyrimidin-7-amine] are 193 nM and 44 nM.
For the compound `CS(=O)(=O)c1ccc(Nc2ncnc3sc(Cc4c(Cl)cccc4Cl)nc23)cc1F` [Example 45, 2-(2,6-Dichlorobenzyl)-N-[3-fluoro-4-(methylsulfonyl)phenyl][1,3]thiazolo[5,4-d]pyrimidin-7-amine], the IC50 against human TRPV1 turned out to be 274 nM; on rat TRPV1, 183 nM.
